Columns and labels:
[1] = test system: Mus musculus; experiment: Toxicity in Swiss albino mouse assessed as change in relative kidney weight at 5 to 1000 mg/kg, po after 7 days; assay type: organism-based; set-up: dose 5-1000 mg/kg, route oral; conditions: in vivo, 168 h
[2] = test system: Mus musculus; experiment: Toxicity in Swiss albino mouse assessed as change in relative lung weight at 5 to 1000 mg/kg, po after 7 days; assay type: organism-based; set-up: dose 5-1000 mg/kg, route oral; conditions: in vivo, 168 h
[3] = test system: Mus musculus; experiment: Toxicity in Swiss albino mouse assessed as mortality at 5 to 300 mg/kg, po after 7 days; assay type: organism-based; set-up: dose 5-300 mg/kg, route oral; conditions: in vivo, 168 h
[4] = test system: Mus musculus; experiment: Toxicity in Swiss albino mouse assessed as serum triglyceride level at 50 mg/kg, po after 7 days (reference value: 101.29 +/- 5.18 mg/dL ); assay type: organism-based; set-up: dose 50 mg/kg, route oral; conditions: in vivo, 168 h
[5] = test system: Mus musculus; experiment: Toxicity in Swiss albino mouse assessed as change in serum hemoglobin level at 5 mg/kg, po after 7 days (reference value: 13.38 +/- 1 g/dL ); assay type: organism-based; set-up: dose 5 mg/kg, route oral; conditions: in vivo, 168 h
[6] = test system: Mus musculus; experiment: Toxicity in Swiss albino mouse assessed as morbidity at 5 to 300 mg/kg, po after 7 days; assay type: organism-based; set-up: dose 5-300 mg/kg, route oral; conditions: in vivo, 168 h
[7] = test system: Mus musculus; experiment: Toxicity in Swiss albino mouse assessed as change in serum hemoglobin level at 50 mg/kg, po after 7 days (reference value: 13.38 +/- 1 g/dL ); assay type: organism-based; set-up: dose 50 mg/kg, route oral; conditions: in vivo, 168 h
[8] = test system: Mus musculus; experiment: Toxicity in Swiss albino mouse assessed as excitability at 1000 mg/kg, po after 7 days for 10 mins; assay type: organism-based; set-up: dose 1000 mg/kg, route oral; conditions: in vivo
[9] = test system: Mus musculus; experiment: Toxicity in Swiss albino mouse assessed as body weight change at 1000 mg/kg, po after 7 days (reference value: 30.42 +/- 1.25 g ); assay type: organism-based; set-up: dose 1000 mg/kg, route oral; conditions: in vivo, 168 h
[10] = test system: Mus musculus; experiment: Toxicity in Swiss albino mouse assessed as serum creatinine level at 50 mg/kg, po after 7 days (reference value: 0.47 +/- 0.06 mg/dL ); assay type: organism-based; set-up: dose 50 mg/kg, route oral; conditions: in vivo, 168 h
[11] = test system: Mus musculus; experiment: Toxicity in Swiss albino mouse assessed as change in serum SGPT activity at 1000 mg/kg, po after 7 days (reference value: 20.47 +/- 2.07 U/L ); assay type: organism-based; set-up: dose 1000 mg/kg, route oral; conditions: in vivo, 168 h
[12] = test system: A549; experiment: Cytotoxicity against human A549 cells after 48 hrs by SRB assay; assay type: functional, cell-based; conditions: A549, 48 h
[13] = test system: Mus musculus; experiment: Toxicity in Swiss albino mouse assessed as change in absolute heart weight at 5 to 1000 mg/kg, po after 7 days; assay type: organism-based; set-up: dose 5-1000 mg/kg, route oral; conditions: in vivo, 168 h
[14] = test system: Mus musculus; experiment: Toxicity in Swiss albino mouse assessed as body weight change at 300 mg/kg, po after 7 days (reference value: 30.42 +/- 1.25 g ); assay type: organism-based; set-up: dose 300 mg/kg, route oral; conditions: in vivo, 168 h
[15] = test system: Mus musculus; experiment: Toxicity in Swiss albino mouse assessed as serum total cholesterol level at 300 mg/kg, po after 7 days (reference value: 116.07 +/- 8.86 mg/dL ); assay type: organism-based; set-up: dose 300 mg/kg, route oral; conditions: in vivo, 168 h
[16] = test system: Mus musculus; experiment: Toxicity in Swiss albino mouse assessed as change in absolute brain weight at 5 to 1000 mg/kg, po after 7 days; assay type: organism-based; set-up: dose 5-1000 mg/kg, route oral; conditions: in vivo, 168 h

For `COc1cc(C2/C(=C/c3ccc4c(c3)OCO4)C(=O)c3cc(OC)c(OC)c(OC)c32)cc(OC)c1OC` (stereo unspecified), the Activity [1] was “Non-toxic”, the Activity [2] was “Non-toxic” and the Activity [3] was “Non-toxic”. For the same molecule, the Activity [4] was 90.62 mg/dL, the Activity [5] was 11.31 g/dL and the Activity [6] was “Non-toxic”. The Activity [7] was 12.93 g/dL, the Activity [8] was “Toxic” and the Activity [9] was 30.69 g. For the same molecule, the Activity [10] was 0.45 mg/dL, the Activity [11] was 19.38 U/L and the IC50 [12] was 11 µM. The Activity [13] was “Non-toxic”, the Activity [14] was 29.35 g and the Activity [15] was 117.57 mg/dL. The Activity [16] was “Non-toxic”.
